Assay results taken from patent US11253524B2 (Gilead Sciences, Inc., priority 2018, dated 2022).

Assays:
[1] = biological target: T1, multidrug-resistance protein 2 (MRP2; ABCC2) (Homo sapiens, UniProt Q92887); test: in vitro; assay type: biochemical
T1 construct: host or cells: membrane vesicle preparations
Method: (§1) Cells and experimental conditions for the transporter inhibition assays are summarized below in Table 7. […] M15, M20, and M23 were prepared according to the procedures described herein. All other materials were purchased by SOLVO Biotechnology and experiments were conducted according to SOLVO Standard Operating Procedures (SOPs) of its certified ISO 9001:2008 system. Lot and product information was recorded by SOLVO Biotechnology.
(§2) Test compounds and positive control was incubated with membrane vesicle preparations (total protein: 50 μg/well) and the model substrate in the absence or presence of ATP. Reaction mixtures were preincubated for 15 minutes at 37° C. Reactions were started by the addition of 25 μL of 12 mM MgATP or AMP assay buffer (for background controls) preincubated separately. Reactions were stopped after 5 min by the addition of 200 μL of ice-cold washing buffer and immediate filtration via glass fiber filters mounted to a 96-well plate (filter plate). The filters were washed, dried and the amount of substrate inside the filtered vesicles determined by liquid scintillation. A positive control inhibitor was tested in parallel. Control membranes lacking transporter expression were used as negative control. All assays were performed in duplicate.
(§3) Fractional transport activities were calculated from the following equation: Activity %=(A−B)/(C−D)×100 where A is translocated amount of substrate in the presence of TA and ATP, B is translocated amount of substrate in the presence of TA, C is translocated amount of substrate in the presence of solvent and ATP, and D is translocated amount of substrate in the presence of solvent. IC50 Determination in Transporter Assays
(§4) IC50 is defined as the test article concentration needed to inhibit the maximal transporter specific transport by 50%. IC50 values were calculated using non-linear fitting of % inhibition versus concentration to a sigmoidal curve with a variable Hill Coefficient using GraphPad Prism 5 (GraphPad Software Inc., San Diego, Calif.). If the % inhibition was less than 50% at the highest concentration tested, the IC50 was not determined. No inhibition observed (NIO) is reported for relative inhibition results <20% and no concentration dependent transport observed up to the highest concentration tested.

[2] = biological target: T2, OATP1B1 (Homo sapiens, UniProt Q9Y6L6); test: OATP1B1 inhibition assay using Fluo-3 as probe substrate, CHO cells; assay type: cell-based; parameters: expressed in transfected cells; host or cells: CHO cells; details: for IC50: OATP1B1, Fluo-3; for inhibition at 1 h, 100 µM: human, CHO cells transfected with human OATP1B1, pH 7.4, probe Fluo-3 (2 μM), OATP1B1, Fluo-3, at 100 μM, read-out: Maximum inhibition at highest test conc. (% of control)
T2 sequence (Q9Y6L6 1-691): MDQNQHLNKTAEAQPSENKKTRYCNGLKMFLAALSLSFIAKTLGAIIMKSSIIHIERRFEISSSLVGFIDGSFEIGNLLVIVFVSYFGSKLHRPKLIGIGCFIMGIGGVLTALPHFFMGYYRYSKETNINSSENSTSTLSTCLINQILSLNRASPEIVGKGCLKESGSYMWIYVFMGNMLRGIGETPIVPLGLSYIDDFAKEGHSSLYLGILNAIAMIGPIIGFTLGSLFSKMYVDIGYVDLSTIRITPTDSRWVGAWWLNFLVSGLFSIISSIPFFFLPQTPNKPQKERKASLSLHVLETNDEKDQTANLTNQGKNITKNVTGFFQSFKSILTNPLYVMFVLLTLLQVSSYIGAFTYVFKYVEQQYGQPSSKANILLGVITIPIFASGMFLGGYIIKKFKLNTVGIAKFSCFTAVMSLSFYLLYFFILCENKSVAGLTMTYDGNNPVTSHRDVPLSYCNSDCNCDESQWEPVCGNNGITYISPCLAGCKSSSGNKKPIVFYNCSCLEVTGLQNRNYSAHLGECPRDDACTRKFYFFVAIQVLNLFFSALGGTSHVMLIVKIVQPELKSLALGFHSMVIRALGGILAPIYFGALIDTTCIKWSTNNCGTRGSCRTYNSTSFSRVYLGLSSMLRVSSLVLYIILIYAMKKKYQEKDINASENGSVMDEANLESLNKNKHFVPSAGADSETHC
Method: Chinese Hamster Ovary (CHO) cells, either wild type or transfected with the genes encoding human OATP1B1 or OATP1B3, were maintained in Dulbecco's Modification of Eagle's Medium (DMEM) containing 1,000 mg/L D-glucose, L-glutamine, 25 mM HEPES buffer, and 110 mg/L sodium pyruvate, 1% Pen/Strep, 10% fetal bovine serum, 0.05 mg/mL L-proline and 0.5 mg/mL of geneticin G-418. Cells were maintained in incubators set at 37° C., 90% humidity and 5% CO2. OATP1B1 or OATP1B3 overexpressing CHO cells were seeded in BioCoat Poly-D-Lysine coated 96 well black cell culture plates with clear bottoms at a density of 1×10^5 cells/well. Sodium butyrate (10 mM) was added to the OATP1B1 and OATP1B3 cells to increase the protein expression level, and the cells were grown to confluence overnight. The assay buffer contained 142 mM NaCl, 5 mM KCl, 1 mM KH2PO4, 1.2 mM MgSO4, 1.5 mM CaCl2, 5 mM Glucose and 12.5 mM HEPES (pH 7.4). After removal of the media and before adding test compounds, the cells were washed twice with 37° C. assay buffer followed by a 0.5 h pre-incubation with assay buffer. Test compounds were serially diluted in DMSO at 250-fold of final test concentrations to create the compound spiking solutions. Compounds were then spiked into assay buffer containing 2 μM Fluo-3 and incubated with cells for 1 h. Following removal of assay buffer containing Fluo-3 and test compound, cells were washed 3 times with 200 μl of ice cold assay buffer and then lysed at room temperature for 15 minutes in a lysis buffer containing […] in a 1 mM CaCl2 solution. Substrate accumulations were determined for Fluo-3 fluorescence at an excitation of 485 nm and emission of 530 nm.
Percent inhibition was calculated according to the following equation: % inhibition=[1−{[OATP]i−[WT]ni}/{[OATP]ni−[WT]ni}]*100 where: [OATP]i represent the substrate accumulation in the presence of test compound for either OATP1B1, OATP1B3, or OATP2B1 cells; [OATP]ni represents the substrate accumulation in the absence of test compound for either OATP1B1, OATP1B3, or OATP2B1 cells, respectively; and [WT]ni represents the substrate accumulation in the absence of test compound for wild type cells or Mock cells, respectively. IC50 Determination in Transporter Assays
IC50 was determined according to the procedures described in Example 5. […] Results are reported as NIO (no interaction observed).

[3] = biological target: T3, MRP2 (ABCC2) (Homo sapiens, UniProt Q92887); test: in vitro; assay type: biochemical; details: human
T3 construct: host or cells: membrane vesicle preparations
Method: as §1, §2, §3, §4

T1 sequence (Q92887 whole entry): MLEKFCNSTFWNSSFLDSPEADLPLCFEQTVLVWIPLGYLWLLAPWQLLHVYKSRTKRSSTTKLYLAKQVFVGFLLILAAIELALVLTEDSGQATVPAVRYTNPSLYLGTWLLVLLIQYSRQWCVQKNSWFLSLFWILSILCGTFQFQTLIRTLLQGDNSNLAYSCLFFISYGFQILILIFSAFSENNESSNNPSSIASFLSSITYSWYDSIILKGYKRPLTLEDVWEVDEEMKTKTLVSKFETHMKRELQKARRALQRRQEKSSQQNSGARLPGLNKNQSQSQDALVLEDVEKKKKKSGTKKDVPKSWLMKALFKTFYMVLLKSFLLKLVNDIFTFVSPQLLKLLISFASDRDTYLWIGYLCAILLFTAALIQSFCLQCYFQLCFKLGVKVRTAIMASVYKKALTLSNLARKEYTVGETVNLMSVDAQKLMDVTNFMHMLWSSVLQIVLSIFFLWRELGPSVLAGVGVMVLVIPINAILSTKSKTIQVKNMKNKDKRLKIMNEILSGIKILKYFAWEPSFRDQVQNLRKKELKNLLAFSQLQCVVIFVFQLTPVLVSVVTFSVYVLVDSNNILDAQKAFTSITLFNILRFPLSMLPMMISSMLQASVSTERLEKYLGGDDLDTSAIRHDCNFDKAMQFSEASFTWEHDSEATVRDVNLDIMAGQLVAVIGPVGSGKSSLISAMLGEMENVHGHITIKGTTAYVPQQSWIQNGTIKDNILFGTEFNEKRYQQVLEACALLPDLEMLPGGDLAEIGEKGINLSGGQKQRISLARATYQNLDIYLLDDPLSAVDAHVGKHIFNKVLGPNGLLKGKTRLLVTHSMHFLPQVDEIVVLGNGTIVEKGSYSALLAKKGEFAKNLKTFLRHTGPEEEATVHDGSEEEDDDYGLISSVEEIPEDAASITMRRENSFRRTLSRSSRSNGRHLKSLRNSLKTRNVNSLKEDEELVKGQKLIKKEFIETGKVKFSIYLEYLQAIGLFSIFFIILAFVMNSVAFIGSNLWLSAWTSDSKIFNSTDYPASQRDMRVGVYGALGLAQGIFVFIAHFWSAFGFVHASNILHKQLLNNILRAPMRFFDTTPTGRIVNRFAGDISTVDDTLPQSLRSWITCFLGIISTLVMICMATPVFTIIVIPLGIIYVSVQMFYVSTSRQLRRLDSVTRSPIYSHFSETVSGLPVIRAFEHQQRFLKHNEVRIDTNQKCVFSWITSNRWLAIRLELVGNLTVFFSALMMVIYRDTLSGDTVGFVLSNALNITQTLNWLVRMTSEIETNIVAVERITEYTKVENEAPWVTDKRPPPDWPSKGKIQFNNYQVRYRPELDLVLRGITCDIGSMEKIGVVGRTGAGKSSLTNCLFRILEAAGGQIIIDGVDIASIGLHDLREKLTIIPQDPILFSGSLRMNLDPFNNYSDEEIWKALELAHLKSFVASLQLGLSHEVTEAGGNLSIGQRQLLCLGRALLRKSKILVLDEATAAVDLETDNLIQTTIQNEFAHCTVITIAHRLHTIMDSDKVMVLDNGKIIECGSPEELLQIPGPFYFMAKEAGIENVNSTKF
T3 sequence (Q92887 whole entry): as above

O=C(NCc1c(F)cc(F)cc1F)c1cn2c(c(O)c1=O)C(=O)N1[C@H]3CC[C@H](C3)O[C@@H]1C2 [BIC, bictegravir, reference compound]
IC50 (μM) [1]: NIO

O=C(NCc1c(F)cc(F)cc1F)c1cn2c(c(O[C@@H]3O[C@H](C(=O)O)[C@@H](O)[C@H](O)[C@H]3O)c1=O)C(=O)N1[C@H]3CC[C@H](C3)O[C@@H]1C2 [Metabolite M15]
IC50 [2]: > 100 µM
inhibition at 1 h, 100 µM [2]: 39%
IC50 [1]: 256 µM
inhibition at 5 min, 300 µM [3]: 53%

O=C(NCc1c(F)cc(F)c(OS(=O)(=O)O)c1F)c1cn2c(c(O)c1=O)C(=O)N1C(C2)O[C@@H]2CC[C@H]1C2 (stereo partly shown) [Metabolite M20]
IC50 [2]: 90.1 µM
inhibition at 1 h, 100 µM [2]: 54%
IC50 [1]: 45 µM
inhibition at 5 min, 300 µM [3]: 98%

O=C(NCc1c(F)cc(F)c(O)c1F)c1cn2c(c(O)c1=O)C(=O)N1[C@H]3CC[C@H](C3)O[C@@H]1C2 [Metabolite M23]
IC50 [2]: 99.9 µM
inhibition at 1 h, 100 µM [2]: 51%
IC50 [1]: > 100 µM
inhibition at 5 min, 100 µM [3]: 43%
